Key:
Test in all cases: Cysteine liganding, probe competition
Assay type in all cases: binding
[1] = molecular target: T1, NAA15 N-alpha-acetyltransferase 15, NatA auxiliary subun (Homo sapiens, UniProt Q9BXJ9)
T1 construct: Cells were resuspended in cold PBS on ice and sonicated with a probe sonicator to achieve lysis; endogenous in cells
T1 sequence (Q9BXJ9 1-866): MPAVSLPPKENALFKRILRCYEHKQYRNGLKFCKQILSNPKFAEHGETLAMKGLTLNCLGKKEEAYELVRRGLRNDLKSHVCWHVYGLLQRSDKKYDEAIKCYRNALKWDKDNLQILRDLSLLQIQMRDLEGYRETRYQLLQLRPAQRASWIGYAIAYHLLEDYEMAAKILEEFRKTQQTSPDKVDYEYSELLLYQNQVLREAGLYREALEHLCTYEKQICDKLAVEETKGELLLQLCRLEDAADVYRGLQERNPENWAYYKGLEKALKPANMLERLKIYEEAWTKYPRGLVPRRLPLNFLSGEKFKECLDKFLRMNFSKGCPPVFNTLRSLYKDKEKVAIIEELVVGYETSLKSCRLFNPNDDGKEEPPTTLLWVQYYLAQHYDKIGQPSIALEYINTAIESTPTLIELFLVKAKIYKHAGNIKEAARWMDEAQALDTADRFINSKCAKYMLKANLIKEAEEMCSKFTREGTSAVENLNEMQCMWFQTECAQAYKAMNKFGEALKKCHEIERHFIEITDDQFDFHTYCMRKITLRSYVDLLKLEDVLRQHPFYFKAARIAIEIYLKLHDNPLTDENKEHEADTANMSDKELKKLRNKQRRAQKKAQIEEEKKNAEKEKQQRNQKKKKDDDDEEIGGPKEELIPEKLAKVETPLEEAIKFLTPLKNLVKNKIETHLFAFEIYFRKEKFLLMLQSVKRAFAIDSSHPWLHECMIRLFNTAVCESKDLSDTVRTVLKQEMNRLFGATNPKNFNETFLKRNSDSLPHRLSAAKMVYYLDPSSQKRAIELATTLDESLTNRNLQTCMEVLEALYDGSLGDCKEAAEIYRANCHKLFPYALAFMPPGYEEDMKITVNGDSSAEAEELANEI
How it was run: (§1)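 Steps: sonicate cells in cold PBS; treat 5 mg/ml lysate with compound (25° C, 1 hr); add desthiobiotin iodoacetamide probe from a 10 mM stock (25° C, 1 hr); precipitate, reduce, alkylate, digest with trypsin; capture labelled peptides on streptavidin for analysis.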

HMOX2 Heme oxygenase 2 = molecular target: T2, HMOX2 Heme oxygenase 2 (Homo sapiens, UniProt P30519); details: for Liganded: HMOX2 Res# 265, uniprot P30519
T2 construct: Cells were resuspended in cold PBS on ice and sonicated with a probe sonicator to achieve lysis; endogenous in cells
T2 sequence (P30519 1-316): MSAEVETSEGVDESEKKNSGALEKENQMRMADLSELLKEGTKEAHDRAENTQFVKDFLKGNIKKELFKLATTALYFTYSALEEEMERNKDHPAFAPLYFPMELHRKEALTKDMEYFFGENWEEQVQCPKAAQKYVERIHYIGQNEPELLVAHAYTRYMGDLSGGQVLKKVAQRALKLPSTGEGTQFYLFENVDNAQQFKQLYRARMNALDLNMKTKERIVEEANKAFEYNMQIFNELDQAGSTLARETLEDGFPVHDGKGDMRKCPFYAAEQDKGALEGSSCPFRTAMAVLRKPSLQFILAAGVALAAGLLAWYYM
How it was run: as §1

[2] = molecular target: T3, ATP6V1A V-type proton ATPase catalytic subunit A (Homo sapiens, UniProt P38606); details: for Liganded: ATP6V1A Res# 277, uniprot P38606
T3 construct: 200 μL of lysate containing 5 mg/ml proteome was treated with 2 μL of 100× compound stock; endogenous in cells
T3 sequence (P38606 whole entry): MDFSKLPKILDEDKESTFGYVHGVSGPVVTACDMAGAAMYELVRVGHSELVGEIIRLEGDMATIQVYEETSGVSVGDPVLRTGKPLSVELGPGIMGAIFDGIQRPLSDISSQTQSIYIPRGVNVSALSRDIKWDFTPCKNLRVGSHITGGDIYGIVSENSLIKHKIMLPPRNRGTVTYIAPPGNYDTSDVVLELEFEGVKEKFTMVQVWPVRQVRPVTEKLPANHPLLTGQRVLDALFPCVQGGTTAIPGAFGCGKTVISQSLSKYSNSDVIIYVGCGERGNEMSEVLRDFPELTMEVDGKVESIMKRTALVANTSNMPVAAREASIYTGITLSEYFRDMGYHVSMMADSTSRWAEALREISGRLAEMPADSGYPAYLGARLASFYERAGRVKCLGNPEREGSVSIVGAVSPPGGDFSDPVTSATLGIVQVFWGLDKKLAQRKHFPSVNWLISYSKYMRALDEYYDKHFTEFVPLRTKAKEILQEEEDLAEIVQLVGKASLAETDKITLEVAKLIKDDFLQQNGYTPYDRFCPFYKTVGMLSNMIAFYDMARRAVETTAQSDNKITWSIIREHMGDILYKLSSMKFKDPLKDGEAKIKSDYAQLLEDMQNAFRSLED
How it was run: as §1

SQSTM1 Sequestosome-1 = molecular target: T4, SQSTM1 Sequestosome-1 (Homo sapiens, UniProt Q13501)
T4 construct: Cells were resuspended in cold PBS on ice and sonicated with a probe sonicator to achieve lysis; endogenous in cells
T4 sequence (Q13501 whole entry): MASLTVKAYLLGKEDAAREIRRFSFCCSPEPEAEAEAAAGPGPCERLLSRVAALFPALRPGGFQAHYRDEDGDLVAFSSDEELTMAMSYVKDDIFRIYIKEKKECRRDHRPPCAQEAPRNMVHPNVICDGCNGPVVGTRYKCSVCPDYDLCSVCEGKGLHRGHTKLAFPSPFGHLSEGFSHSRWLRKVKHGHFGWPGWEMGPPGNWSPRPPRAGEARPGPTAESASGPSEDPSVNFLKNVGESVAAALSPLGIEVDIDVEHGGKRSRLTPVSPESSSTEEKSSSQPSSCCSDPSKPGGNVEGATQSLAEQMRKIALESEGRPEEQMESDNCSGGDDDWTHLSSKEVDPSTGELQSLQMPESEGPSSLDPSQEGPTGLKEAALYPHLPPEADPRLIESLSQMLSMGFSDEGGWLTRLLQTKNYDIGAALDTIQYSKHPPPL
How it was run: as §1

| Structure (SMILES) | Liganded ([1]; NAA15 Res# 817, uniprot Q9BXJ9) | Liganded (HMOX2 Heme oxygenase 2) | Liganded [2] | Liganded (SQSTM1 Sequestosome-1; SQSTM1 Res# 131, uniprot Q13501) | 100 Max ([1]; uniprot Q9BXJ9) | 100 ave ([1]; uniprot Q9BXJ9) | 500 Max ([1]; uniprot Q9BXJ9) | 500 ave ([1]; uniprot Q9BXJ9) | 100 Max (HMOX2 Heme oxygenase 2; uniprot P30519) | 100 ave (HMOX2 Heme oxygenase 2; uniprot P30519) | 500 ave (HMOX2 Heme oxygenase 2; uniprot P30519) | 500 Max (HMOX2 Heme oxygenase 2; uniprot P30519, in % (unit assumed)) | 100 Max ([2]; uniprot P38606) | 100 ave ([2]; uniprot P38606) | 500 Max ([2]; uniprot P38606) | 500 ave ([2]; uniprot P38606) | 100 Max (SQSTM1 Sequestosome-1; uniprot Q13501) | 100 ave (SQSTM1 Sequestosome-1; uniprot Q13501) | 500 Max (SQSTM1 Sequestosome-1; uniprot Q13501) | 500 ave (SQSTM1 Sequestosome-1; uniprot Q13501) |
| --- | --- | --- | --- | --- | --- | --- | --- | --- | --- | --- | --- | --- | --- | --- | --- | --- | --- | --- | --- | --- |
| COc1ccc2c(c1)CCCN2C(=O)CCl [KB02] | YES | YES | YES | YES |  |  |  |  |  |  |  |  |  |  |  |  |  |  |  |  |
| O=C(CCl)Nc1cc(C(F)(F)F)cc(C(F)(F)F)c1 [KBO3] |  | YES | YES |  | −21.23 | −31.6767 | 14.66 | 14.66 | 93.81 | 81.435 | 88.6 | 98.54 | 27.98 | 18.165 | 76.55 | 69.985 | 11.89 | −14.15 | 56.86 | 54.29 |

— patent publication US20200239530A1, “COMPOUNDS AND METHODS OF MODULATING PROTEIN DEGRADATION” (Vividion Therapeutics, Inc., priority 2017, published 2020)
